The text below walks through data of patent publication US5385918A, “Aminomethylene-peptides as immunosuppressants” (Miles Inc., priority 1993, dated 1995).

One test has as its system human T-cells. As to the kind of experiment: Suppression of Human T-Cell Proliferation Assay (PHA-stimulated, [3H]-thymidine incorporation). Format: cell-based. Particulars: for pIC50: inhibition of [3H]-thymidine incorporation of PHA-stimulated purified human T-cells, 72 hours. An excerpt: Inhibition of mitogen-induced T-cell proliferation can be used to profile immunosuppressive activity of test compounds. In the description of the assay which follows, mitogen-induced T-cell proliferation was used to test the inhibitory potencies of select compounds of the present invention.
In an assay similar to that described by Bradley in Mishell et al. (Eds.), 1980, Selected Methods in Cellular Immunology, pp 156-161, W. H. Freeman & Co., San Fransisco, Calif., T-cells were stimulated by incubation with phytohemagglutinin (PHA) which binds to cell surface molecules, including the T-cell receptor. This stimulation results in proliferation which can be measured by incorporation of [^3 H]-thymidine into cellular DNA.
Fresh LeukoPaks were obtained from the New York Blood Center, New York, N.Y. The cells, including erythrocytes and leukocytes, were diluted with Hank's Balanced Salt Solution (HBSS) (GIBCO, Grand Island, N.Y.) and layered over Lymphoprep (Nycomed Pharma AS, Oslo, Norway) in sterile 50 ml conical centrifuge tubes. Lymphocytes were isolated at the Hank's/Nycomed interface after centrifugation at 2000×g, 4° C. for 15 min. The lymphocytes were washed with Minimal Essential Medium (GIBCO) containing 2% fetal bovine serum (FBS) (Sigma Chemical Co., St. Louis, Mo.), 1% HEPES buffer (GIBCO) and 1% Penicillin-Stretomycin solution (GIBCO).
T-cells were further purified essentially by sheep erythrocyte (SRBC) rosetting as described by Morimoto et al., 1983, J. Immunol. 130:157. The isolated lymphocytes were adjusted to 2×10^7 cells/ml and 5 ml aliquots of the cell suspension were incubated for 10 minutes at room temperature with 5 ml of a 5% SRBC (Cappel, Organon Technika Corp., West Chester, Pa.) suspension. The cells were gently pelleted by centrifugation at 300 rpm for 10 minutes, followed by a 1 hour incubation at room temperature to allow rosette formation. The cells were gently resuspended,layered over Lymphoprep and centrifuged for 30 minutes at 500×g. The pellet, containing rosetted T-cells and SRBC was treated with ice cold buffered ammonium chloride (GIBCO) to lyse the erythrocytes. T-cells were washed twice with HBSS.
Purified T-cells were resuspended at 2×10^6 cells/ml in complete culture medium composed of RPMI-1640 (Whittaker Bioproducts, Walkerville, Md.) with 10% FBS (Sigma), 2 mM L-glutamine (GIBCO), 1% Penicillin-Streptomycin (GIBCO) and 15 mM HEPES (GIBCO). In 96-well plates (Becton Dickinson, Lincoln Park, N.J.), 0.1 ml aliquots of T-cell suspension were mixed with 0.05 ml of 40 μg/ml PHA-M (Sigma). The compounds of this invention were dissolved in dimethylsulfoxide at 10 mM and various dilutions in complete medium were added in duplicate wells (0.05 ml/well). The plates were incubated at 37° C. in a humidified atmosphere of 5% carbon dioxide and 95% air for 72 hours.
Proliferation was assessed by measurement of [^3 H]-thymidine incorporation. During the last 6 hours of incubation, the cells were pulse labelled with 1 μCi/well of [^3 H]-thymidine (New England Nuclear, Boston, Mass.). The cells were harvested onto glass fiber paper using a plate harvester and the radioactivity incorporated into cellular DNA corresponding to individual wells was measured by standard liquid scintillation counting methods. The mean counts per minute (CPM) of replicate wells was calculated and linear regression analysis of mean CPM versus compound concentration was used to determine the concentration of compound which would inhibit [^3 H]-thymidine incorporation of T-cells by 50% (IC50).
Background: Incorporation of labelled thymidine or its analogues reports DNA synthesis.

For the next test, the target named is FKBP (Homo sapiens, UniProt P62942). Kind of test: PPIase Inhibition Assay. Format: biochemical. Particulars: inhibition of PPIase activity of FKBP, substrate Succinyl-Ala-Phe-Pro-Phe-para-nitroanilide. How it is done: This assay follows in principle the procedure described in Kofron et al., 1991, Biochemistry 30:6127. The three main reagents used are PPIase, a substrate for PPIase, and a selected inhibitor compound of the present invention. The basic principle behind this assay is the conversion of the cis isomer of the substrate to the trans form, which conversion is catalyzed by PPIase. Essentially, inhibition of this PPIase activity is measured for the selected compounds. A peptide chymotrypsin substrate containing a proline in the P2 position is only cleaved by chymotrypsin when the Phe-Pro bond is in the trans isomeric configuration. In the presence of excess chymotrypsin, all of the trans peptide isomers are cleaved within approximately five seconds, leaving only cis forms.
The cis peptide will spontaneously convert to the trans isomer at a slow rate. The cis to trans conversion is catalyzed by isomerases at a much faster rate than this spontaneous conversion. Proteins with PPIase activity are examples of such isomerases. After isomerization, the peptide is cleaved by chymotrypsin releasing p-nitroaniline which can be monitored at 390 nm. The rate of release is then calculated using a first order rate plus offset equation utilizing the ENZFITTER program (Leatherbarrow, BIOSOFT, Cambridge, United Kingdom).
In a plastic cuvette are added 950 ul of ice cold assay buffer (25 mM HEPES, pH 7.8, 100 mM NaCl), 10 uL of FKBP (2.5 uM in 10 mM Tris-Cl pH 7.5, 100 mM NaCl, 1 mM dithiothreitol), 25 ul of chymotrypsin (50 mg/ml in 1 mM HCl) and 10 ul of the test compound at various concentrations in dimethyl sulphoxide. The reaction is initiated by addition of 5 ul of substrate (Succinyl-Ala-Phe-Pro-Phe-para-nitroanilide, 5 mg/ml in 235 mM LiCl in trifluoroethanol).
The absorbance at 390 nm versus time is monitored for 90 sec using a Beckman DU70 spectrophotometer. The absorbance versus time data files are transferred to an IBM XT computer and the rate constants determined using the commercial Enzfitter program. For each set of data, the uncatalyzed rate of conversion is measured and the uninhibited enzymatic rate determined. The data are expressed as % Inhibition and are calculated as follows: [formula] where kobs is the rate in the presence of a selected test compound, kuncat is the rate in the absence of enzyme, and kuninh is the rate in the presence of enzyme and absence of inhibitor. Data are plotted as percent inhibition versus concentration of inhibitor. The values of the concentration of inhibitor required for 50% inhibition of enzyme activity (IC50) were determined by nonlinear least squares regression analysis.

pIC50: −log10 of the molar value. Some results are limits rather than exact numbers.

Chain of FKBP (P62942 whole entry): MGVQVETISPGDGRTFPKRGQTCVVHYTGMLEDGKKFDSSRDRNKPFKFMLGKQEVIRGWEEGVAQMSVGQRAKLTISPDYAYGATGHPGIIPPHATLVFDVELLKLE

In the case of `CC[C@H](C)[C@@H](CN1CCCC[C@H]1C(=O)N[C@H](C(=O)NCc1ccccc1)[C@@H](C)OCc1ccccc1)NC(=O)OC(C)(C)C` [Example 19, 1-[1-[2-(S)-[[(1,1-Dimethylethoxy)carbonyl]amino]-3-(S)-methylpentyl]-L-homoproline]-L-threonene(O-Benzyl Ether)Benzylamide], the negative logarithm of the IC50 (pIC50) (as a rule, −log10 of the IC50, conventionally taken in molar units) is 4.77 in the test on human T-cells and 5.30 against FKBP.
`CC[C@H](C)[C@H](NC(=O)[C@@H]1CCCN1C[C@H](CC(C)C)NC(=O)OC(C)(C)C)C(=O)NCc1ccccc1` [Example 2, 1-[1-[2-(S)-[[(1,1-Dimethylethoxy)carbonyl]amino]-4-methylpentyl]-L-proline]-L-isoleucine Benzylamide]: the pIC50 is 5.15 in the test on human T-cells and 6.24 on FKBP.
Take `CC[C@H](C)[C@H](NC(=O)[C@@H]1CCCN1C[C@H](CC1CCCCC1)NC(=O)OC(C)(C)C)C(=O)NCc1ccccc1` [Example 16, 1-[1-[2-(S)-[[(1,1-dimethylethoxy)carbonyl]amino]-3-cyclohexylpropyl]-L-proline]-L-isoleucine Benzylamide]: the pIC50 with human T-cells is 5.22; at FKBP, < 5.30.
`CC[C@H](C)[C@H](NC(=O)[C@@H]1CCCCN1C[C@@H](NC(=O)OC(C)(C)C)[C@@H](C)CC)C(=O)NCc1ccccc1` [Example 3, 1-[1-[2-(S)-[[(1,1-Dimethylethoxy)carbonyl]amino]-3-(S)-methylpentyl]-L-homoproline]-L-isoleucine Benzylamide]: the figures for the pIC50 in the test on human T-cells and against FKBP were 6.15 and 5.30, respectively.
The matching figures for `CCC(C)[C@@H](CN1CCC[C@H]1C(=O)N[C@H](C(=O)NCc1ccccc1)[C@@H](C)CC)NC(=O)[C@H](CC1CCCCC1)NC(=O)OC(C)(C)C` (stereo partly drawn) [Example 7, 1-[1-[2-(S)-[[2-(S)-[[(1,1-Dimethylethoxy)carbonyl]amino]-1-oxo-3-cyclohexylpropyl]amino]-3-methylpentyl]-L-proline]-L-isoleucine Benzylamide]: 5.52 and 6.89.
On to `CC[C@H](C)[C@H](NC(=O)[C@@H]1CCCN1C[C@@H](NC(=O)OC(C)(C)C)C(C)C)C(=O)NCc1ccccc1` [Example 17, 1-[1-[2-(S)-[[(1,1-dimethylethoxy)carbonyl]amino]-3-methylbutyl]-L-proline] -L-isoleucine Benzylamide], for which, in the test with human T-cells, the “inhibition of mitogen induced T-cell proliferation” value is “inhibited mitogen induced T-cell proliferation” and the negative logarithm of the IC50 (pIC50) was 4.85. Further, on FKBP, the negative-log IC50 (pIC50) is 6.33.
For `CC[C@H](C)[C@H](NC(=O)[C@@H]1CCCN1C[C@H](CC(C)C)NC(=O)[C@H](CC(N)=O)NC(=O)[C@H](Cc1ccccc1)NC(=O)OC(C)(C)C)C(=O)OCc1ccccc1` [Example 14, 1-[1-[2-(S)-[[1-[1-[(1,1-Dimethylethoxy)carbonyl]-L-phenylalanyl]-L-asparaginyl]amino]-4-methylpentyl]-L-proline]-L-isoleucine Phenylmethyl Ester], in the test on human T-cells, the “inhibition of mitogen induced T-cell proliferation” value was “inhibited mitogen induced T-cell proliferation” and the pIC50 is > 5.22. The pIC50 on FKBP is > 4.30.
Turning to `CC[C@H](C)[C@H](NC(=O)[C@@H]1CCCCN1C[C@H](CC(C)C)NC(=O)OC(C)(C)C)C(=O)NCc1ccccc1` [Example 18, 1-[1-[2-(S)-[[(1,1-Dimethylethoxy)carbonyl]amino]-4-methylpentyl]-L-homoproline]-L-isoleucine Benzylamide], the results for the pIC50 with human T-cells and at FKBP were 5.40 and 5.89, respectively.
With `CC[C@H](C)[C@H](NC(=O)[C@@H]1CCCN1C[C@@H](NC(=O)OC(C)(C)C)[C@@H](C)CC)C(=O)NCc1ccccc1` [Example 6], the negative-log IC50 (pIC50) was 5.22 in the test with human T-cells and 6.41 against FKBP.
Take `CCC(C)[C@@H](CN1CCC[C@H]1C(=O)N[C@H](C(=O)NCc1ccccc1)[C@@H](C)CC)NC(=O)[C@@H](N)CC1CCCCC1` (stereo partly shown) [Example 8]: the pIC50 was 5.30 with human T-cells and 6.80 against FKBP.
